Experimental data as given in patent publication US20120225889A1, “USE OF MACROCYCLIC LACTONE DERIVATIVES FOR THE TREATMENT OF INFLAMMATORY DISORDERS” (PIRAMAL LIFE SCIENCES LIMITED, priority 2010, published 2012).
Read-outs that look alike come from different tables or passages of the source.

Assays:
Type in all cases: cell-based
TNF-α [1] = assay: Human monocyte assay (LPS-induced): TNF-α; details: LPS stimulated human monocytes, 5 h
Source text: (§1) The assay was designed as in reference, Physiological Research, 52, 593-598, (2003), the disclosure of which is incorporated by reference for the teaching of the assay.
(§2) The objective of the assay is to determine whether compounds of the present invention—mediated inhibition of LPS-induced cytokines from monocytic THP-1 cell line translates to physiologically relevant human cells. Accordingly, the effect of compounds of the present invention on LPS—induced cytokine production from freshly isolated human monocytes was ascertained.
Peripheral blood was collected from healthy donors into potassium EDTA vacutainer tubes (BD Biosciences, USA). hPBMCs were isolated using density gradient separation (Histopaque-1077; Sigma, USA) and suspended in assay medium which is RPMI culture medium (Sigma, USA) containing 10% heat inactivated FBS (JRH Biosciences, Australia), 100 U/mL penicillin (Sigma, USA) and […] streptomycin (Sigma, USA). Monocytes in the hPBMCs were counted using a Coulter Counter following which the cells were resuspended at 2×10^5 monocytes/mL of assay medium. A cell suspension containing 2×10^4 monocytes was aliquoted per well of a 96-well plate (Nunc, USA). Subsequently, the hPBMCs were incubated for 4-5 h at 37° C., 5% CO2. […] The IC50 values were calculated by a nonlinear regression method using Graph Pad software (Prism 3.03).

IL-6 [2] = assay: Human monocyte assay (LPS-induced): IL-6; details: LPS stimulated human monocytes, 5 h
Source text: as §1, §2
Peripheral blood was collected from healthy donors into potassium EDTA vacutainer tubes (BD Biosciences, USA). hPBMCs were isolated using density gradient separation (Histopaque-1077; Sigma, USA) and suspended in assay medium which is RPMI culture medium (Sigma, USA) containing 10% heat inactivated FBS (JRH Biosciences, Australia), 100 U/mL penicillin (Sigma, USA) and […] streptomycin (Sigma, USA). Monocytes in the hPBMCs were counted using a Coulter Counter following which the cells were resuspended at 2×10^5 monocytes/mL of assay medium. A cell suspension containing 2×10^4 monocytes was aliquoted per well of a 96-well plate (Nunc, USA). Subsequently, the hPBMCs were incubated for 4-5 h at 37° C., 5% CO2. During the incubation, the monocytes adhered to the bottom of 96-well plate. Following the incubation, the non-adherent lymphocytes were washed and assay medium was added to adherent monocytes. After 48 h of incubation at 37° C., 5% CO2, monocytes were pre-treated with various concentrations of test compound (prepared as 20 mM stock in DMSO; 1 μL of […] concentrated solution of test compound was dissolved in 200 μL cell suspension to achieve a final concentration of 0.03, 0.1, 0.3, 1, 3, 10, 30 and 100 μM) or vehicle (0.5% DMSO) or 10 μM dexamethasone (standard IL-6 and TNF-α inhibitor, Sigma, USA) for 30 min at 37° C., 5% CO2 and stimulated with 1 μg/mL LPS (Escherchia coli 0111:B4, Sigma, USA). The cells were then incubated for 5 h at 37° C., 5% CO2 following which supernatants were collected, stored at −70° C. and were assayed later for IL-6, and TNF-α by ELISA (OptiEIA ELISA sets, BD Biosciences, USA). The IC50 values were calculated by a nonlinear regression method using Graph Pad software (Prism 3.03).

IL-6 [3] = assay: Screening in LPS stimulated THP-1 cells: IL-6; details: Homo sapiens, 24 h, ELISA
Experimental: (§3) IL-6 (BD Biosciences, USA) production by LPS (Escherchia coli 0127:B8, Sigma, USA) in THP-1 cells (ATCC number: TIB202) was designed as in reference, Journal of Immunology, 151, 5631-5638, (1993), the disclosure of which is incorporated by reference for the teaching of the assay.
(§4) THP-1 cells were cultured in RPMI 1640 culture medium (Gibco BRL, UK) containing 100 U/mL penicillin and […] streptomycin, (100× solution, Sigma, USA) containing 10% FBS (JRH Biosciences, USA). 25,000 cells were seeded per well in 96-well plate (Nunc, USA). The cells were differentiated with PMA (Sigma, USA, prepared as 100 μg/mL stock in RPMI and was diluted to 5 ng/mL). The test compound (prepared as 20 mM stock in DMSO and diluted with DMSO to achieve the following final concentrations in the assay: 100, 10, 1, 0.1, 0.01, 0.001 and 0.0001 μM) or vehicle (0.5% DMSO) were added to the cells and the cells were incubated for 30 min at 37° C. LPS (Sigma, USA, prepared as 1 mg/mL stock in PBS) was added to achieve a final concentration of 1 μg/mL. Plates were incubated at 37° C. for 24 h at 5% CO2. Supernatants were harvested, and assayed for TNF-α and IL-6 by ELISA as described by the manufacturer (BD Biosciences, USA). Percent inhibition of cytokine release compared to the control was calculated. The IC50 values were calculated by a nonlinear regression method.

TNF-α [4] = assay: Screening in LPS stimulated THP-1 cells: TNF-α; details: Homo sapiens, 24 h, ELISA
Experimental: as §3, §4

hPBMCs = assay: Lymphocyte proliferation assay (T-cell proliferation of normal hPBMCs); details: Homo sapiens, tritiated thymidine
Source text: The assay method was designed as in references, The Journal of Immunology, 153, 1-9, (1994), and Clinical and Diagnostic Laboratory Immunology, 7, 687-692, (2000), the disclosure of which is incorporated by reference for the teaching of the assay.
hPBMCs were obtained from healthy donors by centrifugation of heparinized venous blood over Ficoll/Hypaque solution (Histopaque-1077, Sigma, USA). Isolated hPBMCs were suspended in RPMI 1640 culture medium supplemented with 10% FBS and seeded at a density of 50,000 cells/well in a 96-well plate (Nunc, USA). The cells were incubated at 37° C., 5% CO2 for a period of 24 h. These cells were used for the lymphocyte proliferation as well as cytokine release assay.
The plated cells were treated with different concentrations of the test compound (prepared as 20 mM stock in DMSO and diluted with DMSO to achieve the following final concentrations in the assay: 100, 10, 1, 0.1, 0.01, 0.001 and 0.0001 μM) and were incubated for 30 min. The cells were then stimulated with 5 ng/mL PMA (Sigma, USA, prepared as 100 μg/mL stock in RPMI and was diluted to 5 ng/mL) and 5 μg/mL PHA (Sigma, USA, prepared as a 1 mg/mL stock in RPMI). The plates were incubated at 37° C., 5% CO2 for 48 h. The cells were treated overnight with 0.1 μCi of tritiated thymidine per well (obtained from BARC, India; prepared as stock of 1 mCi/mL) and was diluted in KRPH buffer to 10 μCi/mL and […] and was added per well to obtain a final concentration 0.1 μCi/well) and at the end of 48 h, the anti-proliferative effect of the compound was measured using the following formula: […]
Controls consisted of hPBMCs with PHA and PMA (Stimulated), hPBMCs with RPMI (Un-stimulated), hPBMCs with FK506 (positive control, Sigma, USA, prepared as 20 mM stock in DMSO and diluted with DMSO to achieve the following final concentrations in the assay: 100, 10, 1, 0.1, 0.01, 0.001 and 0.0001 μM).

C/C=C/C(O)C(C)/C=C/C(=O)C(C)C(O)C(C)C1OC(=O)/C(OC)=C/C(C)=C/C(C)C(O)C(CC)C(O)C(C)C/C(C)=C/C=C/C1OC (stereo not drawn) [Compound of example 6, (3Z,5E,13E,15E)-18-((6E,10E)-3,9-Dihydroxy-4,8-dimethyl-5-oxododeca-6,10-dien-2-yl)-9-ethyl-8,10-dihydroxy-3,17-dimethoxy-5,7,11,13-tetramethyloxacyclooctadeca-3,5,13,15-tetraen-2-one]
IC50 (TNF-α [1]): 5000 nM | IC50 (IL-6 [2]): 600 nM | IC50 (IL-6 [3]): 100 nM | IC50 (TNF-α [4]): > 100000 nM

C=CC[C@@H]1/C=C(\C)C[C@H](C)C[C@H](OC)[C@H]2O[C@@](O)(C(=O)C(=O)N3CCCC[C@H]3C(=O)O[C@H](/C(C)=C/[C@@H]3CC[C@@H](O)[C@H](OC)C3)[C@H](C)[C@@H](O)CC1=O)[C@H](C)C[C@@H]2OC [FK506, reference compound]
IC50 (hPBMCs; hPBMCs stimulated with PMA and PHA, read-out: Stimulated hPBMC's IC50 (inhibition of cell proliferation)): < 1 nM | IC50 (hPBMCs; unstimulated hPBMCs, read-out: Unstimulated hPBMC's IC50 (inhibition of cell proliferation)): 2000 nM
